Data taken from ChEMBL document CHEMBL3217755, “Design, synthesis and biological evaluation of biphenyl urea derivatives as novel VEGFR-2 inhibitors” (Medchemcomm, 2013).

Legend:
[1] = Antiproliferative activity against human SMMC7721 cells after 48 hrs by MTT assay; type: functional, cell-based; details: SMMC-7721, 48 h
[2] = test system: HeLa; experiment: Antiproliferative activity against human HeLa cells after 48 hrs by MTT assay; type: functional, cell-based
[3] = test system: MDA-MB-231; experiment: Antiproliferative activity against human MDA-MB-231 cells after 48 hrs by MTT assay; type: functional, cell-based; details: MDA-MB-231, 48 h
[4] = test system: A549; experiment: Antiproliferative activity against human A549 cells after 48 hrs by MTT assay; type: functional, cell-based; details: A549, 48 h
[5] = test system: K562; experiment: Antiproliferative activity against human K562 cells after 48 hrs by MTT assay; details: K562, 48 h
[6] = test system: SH-SY5Y; experiment: Antiproliferative activity against human SH-SY5Y cells after 48 hrs by MTT assay; type: functional, cell-based
[7] = Antiproliferative activity against human SGC7901 cells after 48 hrs by MTT assay; type: functional, cell-based; details: SGC-7901, 48 h
[8] = test system: LoVo; experiment: Antiproliferative activity against human LoVo cells after 48 hrs by MTT assay; type: functional, cell-based
[9] = test system: SK-BR-3; experiment: Antiproliferative activity against human SK-BR-3 cells after 48 hrs by MTT assay; type: functional, cell-based; details: SK-BR-3, 48 h

COc1cc(-c2cc(NC(=O)Nc3ccc(OCCCN4CCOCC4)cc3C)cc(OC)c2OC)ccc1/C(C)=N/O
IC50 [1]: 33.3 µM | IC50 [2]: 243 µM | IC50 [3]: 49.2 µM | IC50 [4]: 23.7 µM | IC50 [5]: 15.8 µM | IC50 [6]: 18.4 µM

COc1cc(-c2cc(NC(=O)Nc3ccc(OCCN(C)C)cc3)cc(OC)c2OC)ccc1/C(C)=N/O
IC50 [7]: 34.2 µM | IC50 [2]: 63.2 µM | IC50 [3]: 35.2 µM | IC50 [5]: 8.58 µM | IC50 [6]: 6.2 µM

CCN(CC)CCOc1ccc(NC(=O)Nc2cc(OC)c(OC)c(-c3ccc(/C(C)=N/O)c(OC)c3)c2)cc1
IC50 [7]: 58.1 µM | IC50 [1]: 36.4 µM | IC50 [2]: 13.4 µM | IC50 [3]: 20.3 µM | IC50 [4]: 11.7 µM | IC50 [5]: 1.29 µM | IC50 [6]: 18.4 µM | IC50 [8]: 48.4 µM

COc1cc(-c2cc(NC(=O)Nc3ccc(OCCN4CCCC4)cc3)cc(OC)c2OC)ccc1/C(C)=N/O
IC50 [9]: 38.9 µM | IC50 [5]: 4.81 µM | IC50 [8]: 49.2 µM

COc1cc(-c2cc(NC(=O)Nc3ccc(OCCCN4CCOCC4)cc3)cc(OC)c2OC)ccc1/C(C)=N/O
IC50 [7]: 6.8 µM | IC50 [1]: 9.88 µM | IC50 [2]: 92.3 µM | IC50 [4]: 11.7 µM | IC50 [5]: 0.29 µM | IC50 [6]: 4.91 µM

CCN(CC)CCOc1ccc(C)c(NC(=O)Nc2cc(OC)c(OC)c(-c3ccc(/C(C)=N/O)c(OC)c3)c2)c1
IC50 [9]: 14.7 µM | IC50 [4]: 11.2 µM | IC50 [5]: 1.25 µM | IC50 [6]: 43.5 µM

CNC(=O)c1cc(Oc2ccc(NC(=O)Nc3ccc(Cl)c(C(F)(F)F)c3)cc2)ccn1 [SORAFENIB]
IC50 [7]: 102 µM | IC50 [9]: 5.21 µM | IC50 [1]: 9.86 µM | IC50 [2]: 7.68 µM | IC50 [4]: 3.36 µM
